Test results: ChEMBL document CHEMBL5365447, “Pronucleotides of 2',3'-Dideoxy-2',3'-Didehydrothymidine as Potent Anti-HIV Compounds” (J Med Chem, 2023)
Activity calls are given as the source filed them. The calls are words filed in the database; no cut-off is given here.

Columns and labels:
[1] = Retention time of the compound by HPLC analysis; type: physicochemical
[2] = Chemical stability of the compound in phosphate buffer assessed as half life at pH 7.3 by HPLC analysis; type: physicochemical
[3] = Prodrug conversion in pH 7.3 phosphate buffer assessed as ((2S,5R)-5-(5-methyl-2,4-dioxo-3,4-dihydropyrimidin-1(2H)-yl)-2,5-dihydrofuran-2-yl)methyl tri-hydrogen diphosphate formation by measuring half life in presence of pig liver esterase by HPLC analysis; type: ADME
[4] = Prodrug conversion in human CEM/0 cell extract assessed as metabolite formation by measuring half life by HPLC analysis; type: ADME; conditions: ccrf-cem
[5] = Prodrug conversion in human CEM/0 cell extract assessed as ((2S,5R)-5-(5-methyl-2,4-dioxo-3,4-dihydropyrimidin-1(2H)-yl)-2,5-dihydrofuran-2-yl)methyl tri-hydrogen diphosphate formation by HPLC analysis; type: ADME; conditions: ccrf-cem
[6] = Prodrug conversion in human CEM/0 cell extract assessed as ((2S,5R)-5-(5-methyl-2,4-dioxo-3,4-dihydropyrimidin-1(2H)-yl)-2,5-dihydrofuran-2-yl)methyl dihydrogen phosphate formation by HPLC analysis; type: ADME; conditions: ccrf-cem
[7] = test system: Human immunodeficiency virus 1; assay: Antiviral activity against HIV-1 HE infected in wild-type human CEM/0 cells assessed as inhibition of virus-induced cytopathic effect incubated for 4 to 5 days by light microscopic analysis; type: functional, organism-based; conditions: Human immunodeficiency virus 1, HE, CCRF-CEM
[8] = test system: Human immunodeficiency virus 2; assay: Antiviral activity against HIV-2 ROD infected in wild-type human CEM/0 cells assessed as inhibition of virus-induced cytopathic effect incubated for 4 to 5 days by light microscopic analysis; type: functional, organism-based; conditions: Human immunodeficiency virus 2, ROD, CCRF-CEM
[9] = test system: Human immunodeficiency virus 2; assay: Antiviral activity against HIV-2 ROD infected in thymidine kinase-deficient human CEM cells assessed as inhibition of virus-induced cytopathic effect incubated for 4 to 5 days by light microscopic analysis; type: functional, organism-based; conditions: Human immunodeficiency virus 2, ROD, CCRF-CEM
[10] = Cytotoxicity against human CEM cells assessed as reduction in cell viability incubated for 4 to 5 days by light microscopic analysis; type: toxicity, cell-based; conditions: CEM cells (CCRF-CEM), time 4-5 day
[11] = Selectivity index, ratio of CC50 for human CEM cells to EC50 for HIV-2 ROD infected in thymidine kinase-deficient human CEM cells; type: toxicity; conditions: read-out: Ratio CC50/EC50
[12] = test system: Human immunodeficiency virus; assay: Substrate activity at HIV reverse transcriptase measured after 4 hrs by electrophoresis based primer extension assay
[13] = target: T1, DNA polymerase alpha catalytic subunit (Homo sapiens) (UniProt P09884); assay: Substrate activity at human DNA polymerase alpha measured after 4 hrs by electrophoresis based primer extension assay
T1 sequence (whole entry): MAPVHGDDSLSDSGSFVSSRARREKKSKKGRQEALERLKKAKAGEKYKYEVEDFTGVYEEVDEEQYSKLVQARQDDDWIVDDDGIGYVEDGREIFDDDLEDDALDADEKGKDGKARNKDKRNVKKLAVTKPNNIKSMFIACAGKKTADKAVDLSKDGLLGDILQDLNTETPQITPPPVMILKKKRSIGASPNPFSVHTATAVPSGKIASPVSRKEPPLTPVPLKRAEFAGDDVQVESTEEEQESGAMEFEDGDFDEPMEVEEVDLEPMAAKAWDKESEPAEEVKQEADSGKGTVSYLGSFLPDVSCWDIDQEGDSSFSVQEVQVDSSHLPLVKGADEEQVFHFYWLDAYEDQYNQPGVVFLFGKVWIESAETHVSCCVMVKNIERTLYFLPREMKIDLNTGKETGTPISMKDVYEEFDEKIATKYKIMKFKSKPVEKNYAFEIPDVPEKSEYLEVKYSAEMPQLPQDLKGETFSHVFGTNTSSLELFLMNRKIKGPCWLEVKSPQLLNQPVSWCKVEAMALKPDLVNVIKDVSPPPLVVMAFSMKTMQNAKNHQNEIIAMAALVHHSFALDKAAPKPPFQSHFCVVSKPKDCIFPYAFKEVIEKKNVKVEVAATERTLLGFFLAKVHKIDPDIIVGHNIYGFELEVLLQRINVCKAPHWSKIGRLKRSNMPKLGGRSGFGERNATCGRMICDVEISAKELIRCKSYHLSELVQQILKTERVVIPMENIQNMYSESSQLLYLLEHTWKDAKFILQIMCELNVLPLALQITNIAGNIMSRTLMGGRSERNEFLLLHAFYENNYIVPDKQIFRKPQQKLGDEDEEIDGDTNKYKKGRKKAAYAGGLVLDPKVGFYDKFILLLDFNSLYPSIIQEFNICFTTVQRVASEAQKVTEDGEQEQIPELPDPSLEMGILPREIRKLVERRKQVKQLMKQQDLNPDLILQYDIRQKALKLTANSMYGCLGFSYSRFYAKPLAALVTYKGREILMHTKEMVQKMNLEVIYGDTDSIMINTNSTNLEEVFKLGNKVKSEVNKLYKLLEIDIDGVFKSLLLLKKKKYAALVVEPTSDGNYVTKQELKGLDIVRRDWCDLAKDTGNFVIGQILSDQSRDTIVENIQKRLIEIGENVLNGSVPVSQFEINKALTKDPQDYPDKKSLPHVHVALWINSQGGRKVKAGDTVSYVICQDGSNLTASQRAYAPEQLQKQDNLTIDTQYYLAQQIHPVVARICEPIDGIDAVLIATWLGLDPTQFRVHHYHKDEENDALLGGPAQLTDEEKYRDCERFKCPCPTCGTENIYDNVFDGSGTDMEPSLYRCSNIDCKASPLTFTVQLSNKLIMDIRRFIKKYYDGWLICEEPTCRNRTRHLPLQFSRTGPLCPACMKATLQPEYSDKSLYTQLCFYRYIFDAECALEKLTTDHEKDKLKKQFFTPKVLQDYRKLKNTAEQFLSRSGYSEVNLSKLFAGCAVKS

[14] = target: DNA polymerase beta (Homo sapiens) (UniProt P06746); assay: Substrate activity at human DNA polymerase beta measured after 4 hrs by electrophoresis based primer extension assay
[15] = test system: Human immunodeficiency virus 1; assay: Potency index, ratio of 3'-deoxy-2',3'-dehydrothymidine EC50 to compound EC50 for antiviral activity against HIV-1 HE infected in wild-type human CEM/0 cells; type: functional
[16] = test system: Human immunodeficiency virus 2; assay: Potency index, ratio of 3'-deoxy-2',3'-dehydrothymidine EC50 to compound EC50 for antiviral activity against HIV-2 ROD infected in wild-type human CEM/0 cells; type: functional
[17] = test system: Human immunodeficiency virus 2; assay: Potency index, ratio of 3'-deoxy-2',3'-dehydrothymidine EC50 to compound EC50 for antiviral activity against HIV-2 ROD infected in thymidine kinase-deficient human CEM[…] cells; type: functional

CCCCCCCCCCCCCCCCCCP(=O)(OC)OP(=O)(O)OP(=O)(O)OC[C@@H]1C=C[C@H](n2cc(C)c(=O)[nH]c2=O)O1.N.N (some centres not stated)
Retention_time [1]: 15.2 min | half-life [2]: 27.2 days | t1/2 [3]: > 6.25 days | t1/2 [4]: > 0.625 days | Drug metabolism [5]: Metabolite_Detected | Drug metabolism [6]: Metabolite_Detected | EC50 [7]: 51 nM | EC50 [8]: 80 nM | EC50 [9]: 480 nM | CC50 [10]: 40000 nM | selectivity ratio [11]: 83 | Activity [12]: Active | Activity [13]: inactive | Activity [14]: inactive | Ratio EC50 [15]: 4 | Ratio EC50 [16]: 4 | Ratio EC50 [17]: 10000
